Assay results taken from patent US10308689B2, “Dengue virus (DV) polypeptide sequences, T cell epitopes and methods and uses thereof” (LA JOLLA INSTITUTE FOR ALLERGY AND IMMUNOLOGY, priority 2010, dated 2019).
pIC50: −log10 of the molar value. Ends that are not written are not given here.

How the values were obtained:
[1] = tested on: PBMC from DENV seropositive HLA matched human donors; assay: IFNγ ELISPOT of human PBMC restimulated 7 days with peptide and IL2; format: cell-based; conditions: responding B*0702 matched donors (out of 5)
Experimental: To evaluate the antigenicity of the epitopes in humans, 2×10^6 PBMC/ml were stimulated in the presence of 1 μg/ml individual peptide for 7 days. Cells were cultured at 37° C., 5% CO2, and recombinant IL2 (10 U/mL, eBiosciences, San Diego, Calif.) was added 3 days after antigenic stimulation. After one week, PBMC were harvested and tested at a concentration of 1×10^5/well in an IFNγ ELISPOT assay, as described above. […] To be considered positive, IFNγ responses needed to exceed the threshold set as the mean responses of HLA non-matched and DENV seronegative donors plus 3 times the standard deviation.

[2] = tested on: PBMC of healthy adult blood donors from Colombo, Sri Lanka; assay: Ex vivo IFNγ ELISPOT, HLA-matched PBMC of Sri Lankan blood donors; format: cell-based, human; design: Total Response per epitope: unit not given here
HLA B*4001 = HLA B*4001 (Homo sapiens, UniProt P01889, A65T/A93T/A95T/D138N/D98Y/E176V/E69K/N87E/Q56L/Q94N/R180L/S121R/S35A/S48T/T167S/V36M/W171L/Y33H/Y91S); assay: MHC peptide-binding assay, purified B*4001
Description: The non-transfected cell line was used as a negative control. […] The LG2 cell line was used as a negative control.

HLA DRB1*0101 = biological target: T1, HLA DRB1*0101 (Homo sapiens, UniProt P01903+P01911, A100R/D57E/F55L/F60I/F76Y/I96L/L162R/M171V/P40L/Q125E/R42F/V115G/Y59C); assay: MHC peptide-binding assay, purified DRB1*0101
T1 construct: made in house

[3] = tested on: splenic CD4+ T cells from DENV3 (D3S5CX) infected DRB1*0101 transgenic IFN-α/βR−/− mice; assay: IFNγ ELISPOT, CD4+ T cells of DENV3 (D3S5CX) infected DRB1*0101 transgenic IFN-α/βR−/− mice; format: cell-based, mouse; conditions: day 7 after DENV3 D3S5CX, SFC/10^6 T cells
DENV2 (S221) = assay: Peptide immunization and DENV2 challenge, DENV2 RNA by real-time RT-PCR; format: in vivo, mouse; conditions: immunization with the four H-2^b peptides together; day 4 after S221 infection
Experimental: Mice were euthanized by isoflurane inhalation and blood was collected via cardiac puncture. Serum was separated from whole blood by centrifugation in serum separator tubes (Starsted) Small intestines were put into PBS, flushed, filleted, chopped into small pieces, and put into RNAlater (Qiagen). Other organs were immediately placed into RNAlater and all organs were subsequently homogenized for 3 min in 1 ml tissue lysis buffer (Qiagen Buffer RLT) using a Mini-Beadbeater-8 (BioSpec Products) or QiagenTissueLyser Immediately after homogenization, all tissues were centrifuged (5 min, 4° C., 16,000×g) to pellet debris, and RNA was isolated using the RNeasy Mini Kit (Qiagen). Serum RNA was isolated using the QIAamp Viral RNA Mini Kit (Qiagen). After elution, viral RNA was stored at −80° C. Quantitative RT-PCR was performed according to a published protocol (Houng et al., J Virol Methods 86:1-11 (2000)), except a MyiQ Single-Color Real-Time PCR Detection System (Bio-Rad) with One-Step qRT-PCR Kit (Quanta BioSciences) were used. […] After transcription, DNA was digested with DNase I, and RNA was purified using the RNeasy Mini Kit and quantified by spectrophotometry. To control for RNA quality and quantity when measuring DENV in tissues, the level of 18S rRNA was measured using 18S primers described previously (Lacher, et al., Cancer Res 66:1648 (2006)) in parallel real-time RT-PCR reactions. […]

CC[C@H](C)[C@H](NC(=O)CNC(=O)[C@H](CCC(=O)O)NC(=O)[C@@H]1CCCN1C(=O)[C@@H](N)[C@@H](C)O)C(=O)N[C@H](C(=O)N1CCC[C@H]1C(=O)N[C@@H](CO)C(=O)N[C@@H](CCSC)C(=O)N[C@@H](Cc1ccccc1)C(=O)O)[C@@H](C)CC [NS31978-1987]
frequency in humans [1]: 20% (1 out of 5) | Total Response per epitope ([2]; IFNγ ELISPOT response summed over responding donors, per epitope): 1771.7 | # donors responded ([2]; number of donors responding to the epitope, HLA-matched PBMC, proteome-wide screen): 7 | T cell response [SFC] ([2]; per epitope, ex vivo IFNγ SFC/10^6 PBMC): 1772 SFC | # of responders ([2]; responding donors, HLA allele(s)): 7

GEIGAIALDF [NS31598-1607]
pIC50 (HLA B*4001): 7.40

CC[C@H](C)[C@H](NC(=O)[C@H](CC(C)C)NC(=O)[C@H](CO)NC(=O)[C@H](C)NC(=O)[C@H](CCCCN)NC(=O)[C@H](CCC(=O)O)NC(=O)[C@H](CC(C)C)NC(=O)[C@H](CCCCN)NC(=O)[C@H](Cc1c[nH]c2ccccc12)NC(=O)[C@H](CO)NC(=O)CN)C(=O)N[C@@H](CCC(=O)O)C(=O)N[C@H](C(=O)N[C@@H](CCCCN)C(=O)N[C@H](C(=O)O)[C@@H](C)O)C(C)C [NS1984-998]
pIC50 (HLA DRB1*0101): 7.25 | T cell response [SFC] [3]: 236 SFC

CSCC[C@H](NC(=O)[C@H](CCCNC(=N)N)NC(=O)[C@@H]1CCCN1C(=O)[C@@H](N)[C@@H](C)O)C(=O)N[C@@H](CS)C(=O)N[C@H](C(=O)N[C@@H](CCCNC(=N)N)C(=O)N[C@@H](CCC(=O)O)C(=O)N[C@@H](CCC(=O)O)C(=O)N[C@@H](Cc1ccccc1)C(=O)O)[C@@H](C)O [NS52885-2894]
frequency in humans [1]: 60% (3 out of 5)

NS2A8-15: DENV-2 derived H-2^b restricted dominant CD8+ T cell epitope (FSLGVLGM)
lower serum DENV RNA levels, peptide-immunized vs mock-immunized mice (DENV2 (S221)): 350 fold

AEQTGVSHNL [NS2B1412-1421]
pIC50 (HLA B*4001): 7.17

CC[C@H](C)[C@H](NC(=O)[C@H](CCSC)NC(=O)[C@H](CCSC)NC(=O)[C@H](CC(C)C)NC(=O)[C@H](CS)NC(=O)[C@H](CC(C)C)NC(=O)[C@H](CO)NC(=O)[C@@H](NC(=O)[C@@H](N)CCCCN)[C@@H](C)O)C(=O)N[C@@H](CC(C)C)C(=O)N1CCC[C@H]1C(=O)N[C@@H](C)C(=O)N[C@@H](C)C(=O)N[C@@H](CC(C)C)C(=O)N[C@@H](C)C(=O)O [Epitope C101-115]
pIC50 (HLA DRB1*0101): 7.92 | T cell response [SFC] [3]: 82 SFC
